Measurements as given in US20040265252A1, “Compounds stimulating and inhibiting melanin formation, and methods for screening these compounds” (New York University, priority 2003, published 2004).

Columns and labels:
melan-a melanocytes = test: Melanin assay / pigmentation of cultured melanocytes; format: cell-based, mouse
Method: The numbers above the bars indicate the percent increase in melanin production relative to the untreated control. For this assay, melan-a melanocytes were cultured in DMEM supplements with 10% FCS, 1% L-glutamine, 1% penicillin/streptomycin, and 40 nM TPA. The cultures were maintained at 37° C., 5% CO2. The cells were seeded at 5×10^4 cells per well in 24 well plates and treated for 72 hours. Photographs were taken after 72 hours at 40× magnification. The cells were harvested, centrifuged, and the protein was extracted from the pellet with 1:1 ethanol:ether. The melanin pellets were solubilized in 20% DMSO/2N NaOH. Samples were transferred to a 96-well plate and the optical density was read at 490 nm using a Biorad 550 spectrophotometer.
The cells were rinsed with phosphate buffered saline (PBS) and lysed with an extraction buffer of […] Tris, pH 7.5; 2 mM ethylenediamine tetraacetic acid (EDTA), pH 7.8; 150 mM NaCl; 1% Titron X-100, with protease inhibitor cocktail at 4° C. The cell extracts were then spun at 12,000 rpm for 10 minutes at 4° C. The remaining pellet was assayed for melanin by rinsing twice with ethanol-ether (1:1) and dissolving in 200 microL of 2N NaOH in 20% DMSO at 60° C. A 100 microL aliquot of the resulting solution was then measured for absorbance at […].

[1] = biological target: T1, mitochondrial F1F0 ATPase (Mus musculus, UniProt P56480+Q03265+Q9CR84); test: Affinity chromatography on immobilized PPA (PPA-Affi) with competition, melanocyte extracts; format: binding; conditions: for competition with ATPase binding to PPA affinity matrix: melan-a extracts, competitor 30 minutes at 4° C., antibodies to beta and alpha subunits
T1 construct: endogenous in cells; host or cells: Melan-a murine melanocytes
Method: Melanocyte extracts were incubated with PPA-Affi in the presence of the compounds shown. After extensive washing, bound proteins were then eluted with SDS-containing buffer and subjected to SDS-PAGE and silver staining. […] The binding of mitochondrial ATPase was inhibited not only by PPA itself but also by oligomycin, a known mitochondrial ATPase inhibitor.
FIG. 5 is another illustration that mitochondrial ATPase is the target of PPA. The experimental protocol were similar to those described above, but rather than silver stain, immunoblotting was conducted with antibodies to the beta and alpha subunits of the mitochondrial ATPase. The primary antibody in A was anti-F1-ATPase beta subunit antibody (1:2500, 1 hour), and the primary antibody in B was anti-ATPase alpha subunit antibody (1:2500, 1 hour). The secondary antibody was anti-mouse Goat IgG (1:2500, 1 hour).
For this experiment, the cell source was Melan-a (murine melanocyte). The reaction volume was 147 microL of protein extract (0.3 mg/mL)+147 microL bead buffer+6 microL competitor (aurovertin or PPA6 or DMSO). The competition took place for 30 minutes at 4° C. with rocking. The bead volume was 40 microL of 50% slurry. The beads were washed with 1 mL bead buffer seven times. Elution was with 40 microL+30 microL Laemmli buffer, heating for 4 minutes at 90° C.
For the gel electrophoresis, the gel was 10% SDS-PAGE gel, 20-well combination. The loading volume was 25 microL (2nd elution). Running was 30V, overnight.
Protein was extracted from cells by incubation with extraction buffer (1 mM CaCl2, 150 mM NaCL; 10 mM Tris, pH 7.4; 1% Triton X-100, 1 mM PMSF plus protease inhibitor cocktail (Roche, NJ, USA) for five minutes on ice. Crude lysate was centrifuged at 13,000 rpm for ten minutes. The protein concentration of the supernatant was measured by the Bradford assay (Bio-Rad, CA) and adjusted to a final concentration of 1 microg/microL prior to affinity chromatography. […]

[2] = biological target: T2, mitochondrial ATPase (beta subunit, OSCP) (Homo sapiens, UniProt P05496+P06576+P48047); test: PPA-Affi affinity binding and competition, SK Mel19 extracts; conditions: SK Mel19 protein extract
T2 construct: Using human melanoma cell source SK Mel 19, the reaction volume was 147 microL of protein extract; endogenous in cells; host or cells: SK Mel19 human melanoma cells
Method: (§1) Using human melanoma cell source SK Mel 19, the reaction volume was 147 microL of protein extract (1.0 mg/mL)+147 microL bead buffer+6 microL competitor (oligomycin) or S+DMSO. Competition was effected for 30 minutes at 4° C. with rocking. The bead volume was 40 microL of 50% slurry. Washing was five times with 1 mL bead buffer, and elution was with 40 microL Laemmli buffer, with heating for 4 minutes at 90° C. Gel electrophoresis was with 10% SDS-PAGE gel, 20 well combination. Loading volume was 35 microL, and running was 30V, overnight.
as §1, with “99” for “147”, “mg/mL)+99” for “mg/mL)+147”, “buffer+2” for “buffer+6”, “DMSO. Incubation” for “S+DMSO. Competition”, “100V for one hour.” for “30V, overnight.”

tyrosinase [3] = test: Tyrosinase assay on conditioned media; format: cell-based; conditions: conditioned media of treated cells
tyrosinase [4] = biological target: T3, tyrosinase (Mus musculus, UniProt P11344); test: Tyrosinase assay on pre-lysed cells; format: biochemical; conditions: pre-lysed cells treated with compound
T3 construct: tyrosinase assay on cell lysates derived from whole cells; endogenous in cells; host or cells: melanocytes
T3 sequence (P11344 19-533): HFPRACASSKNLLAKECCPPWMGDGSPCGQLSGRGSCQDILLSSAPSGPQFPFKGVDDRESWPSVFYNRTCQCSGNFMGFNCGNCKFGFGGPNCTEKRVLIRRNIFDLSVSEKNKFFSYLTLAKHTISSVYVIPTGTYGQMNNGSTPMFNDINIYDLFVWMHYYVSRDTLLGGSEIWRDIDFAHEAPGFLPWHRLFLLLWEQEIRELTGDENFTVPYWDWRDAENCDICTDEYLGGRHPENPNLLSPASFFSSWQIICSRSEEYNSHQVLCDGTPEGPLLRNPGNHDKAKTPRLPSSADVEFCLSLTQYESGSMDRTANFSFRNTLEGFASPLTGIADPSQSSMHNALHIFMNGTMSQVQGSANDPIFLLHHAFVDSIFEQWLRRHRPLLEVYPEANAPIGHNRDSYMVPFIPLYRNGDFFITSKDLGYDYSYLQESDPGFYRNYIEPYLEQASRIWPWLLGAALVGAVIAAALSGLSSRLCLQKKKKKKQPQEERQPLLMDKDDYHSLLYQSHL

Row | SMILES | pigmentation (melanin production) (melan-a melanocytes) | competition with ATPase binding to PPA affinity matrix [1] | inhibition of binding of mitochondrial ATPase to PPA-Affi ([1]; melanocyte extracts, SDS-PAGE and silver staining) | elution of beta subunit and OSCP bound to PPA-Affi [2] | secreted tyrosinase activity (tyrosinase [3]) | tyrosinase activity (tyrosinase [4])
1 | CC[C@H]1/C=C/C=C/C[C@@H](C)[C@H](O)[C@@](C)(O)C(=O)[C@@H](C)[C@H](O)[C@@H](C)C(=O)[C@@H](C)[C@H](O)[C@@H](C)/C=C/C(=O)O[C@@H]2[C@H](C)[C@H](CC1)O[C@]1(CC[C@H](C)[C@H](C[C@@H](C)O)O1)[C@H]2C [oligomycin, Oligomycin] | promote pigmentation | competed with ATPase binding | inhibited | eluted by oligomycin |  | 
2 | CC(C)Cn1c(=O)n(C)c(=O)c2[nH]cnc21 [IBMX, 3-Isobutyl-1-methylxanthine] |  |  |  |  | large increase in secreted enzyme activity | only a marginal change
3 | CC[C@H]1O[C@]2(C)[C@H](OC(C)=O)[C@@]1(C)O[C@@H](/C=C/C=C/C=C/c1oc(=O)cc(OC)c1C)[C@@H]2O [aurovertin, aurovertin B] | promote pigmentation | do not compete |  |  |  | 
4 | NC(=S)Nc1ccccc1 [PTU, phenylthiourea] |  |  |  |  |  | significant decrease in tyrosinase activity
